Assay results from patent publication US8466113B2, “4-isopropylphenyl glucitol compounds as SGLT1 inhibitors” (Taisho Pharmaceutical Co., Ltd., priority 2009, dated 2013).

Tests used:
human SGLT1 = biological target: T1, human SGLT1 (Homo sapiens, UniProt P13866); experiment: Inhibition test for sodium-dependent sugar uptake in CHO-K1 cells stably expressing human SGLT1; type: cell-based; details: [14C]methyl α-D-glucopyranoside uptake, 37° C., 30 minutes, read-out: IC50 for hSGLT1
T1 construct: expressed in transfected cells; host or cells: CHO-K1
T1 sequence (P13866 1-664): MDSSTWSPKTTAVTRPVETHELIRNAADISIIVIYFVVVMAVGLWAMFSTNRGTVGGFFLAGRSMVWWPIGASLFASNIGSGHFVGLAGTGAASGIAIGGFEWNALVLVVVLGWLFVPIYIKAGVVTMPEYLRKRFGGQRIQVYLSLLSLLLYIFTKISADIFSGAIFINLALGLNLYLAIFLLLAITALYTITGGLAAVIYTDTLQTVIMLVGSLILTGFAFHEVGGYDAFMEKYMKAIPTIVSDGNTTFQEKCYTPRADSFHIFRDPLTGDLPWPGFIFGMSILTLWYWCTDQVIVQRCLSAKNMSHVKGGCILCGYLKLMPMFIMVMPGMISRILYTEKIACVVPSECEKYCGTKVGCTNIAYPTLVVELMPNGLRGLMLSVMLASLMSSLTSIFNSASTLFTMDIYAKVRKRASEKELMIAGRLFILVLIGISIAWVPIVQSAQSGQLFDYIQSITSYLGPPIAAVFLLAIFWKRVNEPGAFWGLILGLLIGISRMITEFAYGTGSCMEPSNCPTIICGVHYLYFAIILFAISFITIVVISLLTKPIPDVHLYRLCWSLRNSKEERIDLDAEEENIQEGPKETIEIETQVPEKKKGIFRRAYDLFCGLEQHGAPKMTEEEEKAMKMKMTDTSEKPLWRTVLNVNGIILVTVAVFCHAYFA
Procedure: (1) Creation of CHO-K1 Cells Stably Expressing Human SGLT1
(§1) A plasmid vector expressing human SGLT1 protein was transfected into CHO-K1 cells using lipofectamine 2000 (Invitrogen). The cells were cultured in the presence of 500 μg/mL geneticin to select resistant strains, followed by screening in the system shown below using sugar uptake capacity as an indicator to obtain SGLT1-expressing cells.
(§2) (3) Inhibition Test for Sodium-Dependent Sugar Uptake in Stably Expressing Cells
(§3) The stably expressing cells prepared above were used in the following test.
(§4) Pretreatment buffer (140 mM choline chloride, 2 mM KCl, 1 mM CaCl2, 1 mM MgCl2, 10 mM HEPES/5 mM Tris, pH 7.4) was added in a volume of 200 μL to the cells stably expressing SGLT1 or 2 mL for Method A and 200 μL for Method B to the cells stably expressing SGLT2, followed by incubation for 20 minutes. The pretreatment buffer was removed and replaced by uptake buffer containing a test compound (1 mM methyl α-D-glucopyranoside (containing [^14C]methyl α-D-glucopyranoside), 140 mM NaCl, 2 mM KCl, 1 mM CaCl2, 1 mM MgCl2, 10 mM HEPES/5 mM Tris, pH 7.4) in a volume of 75 μL for SGLT1 and SGLT2 in Method B or 200 μL for SGLT2 in Method A. Uptake reaction was performed at 37° C. for 30 minutes (SGLT1) or 60 minutes (SGLT2). After the reaction, the cells were washed twice with washing buffer (10 mM methyl α-D-glucopyranoside, 140 mM choline chloride, 2 mM KCl, 1 mM CaCl2, 1 mM MgCl2, 10 mM HEPES/5 mM Tris, pH 7.4) in a volume of 200 μL for SGLT1 and SGLT2 in Method B or 2 mL for SGLT2 in Method A, and then dissolved in a 0.25 M NaOH solution (75 μL for SGLT1 and SGLT2 in Method B or 400 μL for SGLT2 in Method A). A liquid scintillator (Perkin Elmer) was added and mixed well with each sample, followed by measurement of radioactivity using a β-ray analyzer. For the control group, uptake buffer containing no test compound was prepared. Moreover, another uptake buffer containing choline chloride instead of NaCl was also prepared for basal uptake.
(§5) For determination of IC50 values, test compounds prepared at 6 appropriate concentrations were used and their concentrations required for 50% inhibition of the amount of sugar uptake (IC50 values) were calculated relative to the amount of sugar uptake in the control group (100%).

[1] = biological target: T2, human SGLT2 protein modified to have LeuGluSerArgGlyProVal added to the carboxy-terminal final residue (Homo sapiens, UniProt P31639); experiment: Inhibition test for sodium-dependent sugar uptake in CHO-K1 cells stably expressing human SGLT2, Method A; type: cell-based; details: uptake 37° C., 60 minutes, read-out: IC50 for hSGLT2 Method A
T2 construct: expressed in transfected cells; host or cells: CHO-K1
T2 sequence (P31639 with tags, fused parts or gaps): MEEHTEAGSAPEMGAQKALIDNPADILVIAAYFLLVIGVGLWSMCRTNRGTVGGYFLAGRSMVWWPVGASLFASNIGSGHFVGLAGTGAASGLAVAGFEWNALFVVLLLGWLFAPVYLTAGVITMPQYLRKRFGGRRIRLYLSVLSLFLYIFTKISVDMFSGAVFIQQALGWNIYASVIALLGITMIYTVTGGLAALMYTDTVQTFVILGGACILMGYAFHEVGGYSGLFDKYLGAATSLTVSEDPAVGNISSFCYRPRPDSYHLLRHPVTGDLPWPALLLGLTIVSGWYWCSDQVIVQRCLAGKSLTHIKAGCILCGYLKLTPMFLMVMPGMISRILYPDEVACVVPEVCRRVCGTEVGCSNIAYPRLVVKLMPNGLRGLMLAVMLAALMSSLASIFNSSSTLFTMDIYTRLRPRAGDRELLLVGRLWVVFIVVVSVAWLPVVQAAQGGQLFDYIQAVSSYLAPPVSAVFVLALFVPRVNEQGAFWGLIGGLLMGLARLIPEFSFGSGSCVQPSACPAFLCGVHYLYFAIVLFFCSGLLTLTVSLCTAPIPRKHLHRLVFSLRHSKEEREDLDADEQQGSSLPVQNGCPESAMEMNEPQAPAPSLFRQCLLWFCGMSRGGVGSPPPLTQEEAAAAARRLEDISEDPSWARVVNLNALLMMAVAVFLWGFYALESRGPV
Procedure: (2) Creation of CHO-K1 Cells Stably Expressing Human SGLT2
as §1, with “Method A (described in WO2007/136116): A” for “A”, “SGLT2” for “SGLT1”, “protein modified to have LeuGluSerArgGlyProVal added to the carboxy-terminal final residue” for “protein”, “hygromycin B” for “geneticin”, “SGLT2-expressing” for “SGLT1-expressing”
as §2, §3, §4, §5

| SMILES | IC50 (human SGLT1) | IC50 [1] |
| --- | --- | --- |
| Cc1cc(/C=C/C(C)(C)C(=O)NC(C)(C)C(=O)NCC(C)(C)N)ccc1Cc1cc([C@@H]2O[C@H](CO)[C@@H](O)[C@H](O)[C@H]2O)c(O)cc1C(C)C [Example 6-2] | 27 nM | 3110 nM |
| Cc1cc(/C=C/C(C)(C)C(=O)NC(C)(C)C(=O)NCCN(C)C)ccc1Cc1cc([C@@H]2O[C@H](CO)[C@@H](O)[C@H](O)[C@H]2O)c(O)cc1C(C)C [Example 1-2] | 35 nM | 2690 nM |
| Cc1cc(/C=C/C(C)(C)C(=O)NC(C)(C)C(=O)N2CCC(N(C)C)CC2)ccc1Cc1cc([C@@H]2O[C@H](CO)[C@@H](O)[C@H](O)[C@H]2O)c(O)cc1C(C)C [Example 5-2] | 42 nM | 802 nM |
| COc1cc(C(C)C)c(Cc2ccc(/C=C/C(C)(C)C(=O)NC(C)(C)C(=O)NCCN(C)C)cc2)cc1[C@@H]1O[C@H](CO)[C@@H](O)[C@H](O)[C@H]1O [Example 15-2] | 29 nM | 1280 nM |
| COc1cc(C(C)C)c(Cc2ccc(/C=C/C(C)(C)C(=O)NC(C)(C)C(=O)NCC(C)(C)N)cc2C)cc1[C@@H]1O[C@H](CO)[C@@H](O)[C@H](O)[C@H]1O [Example 13-2] | 54 nM | 14800 nM |
